Measured values: patent publication US9326513B2, “Fungicidal compositions” (Syngenta Participations AG, priority 2011, dated 2016)

Assays:
Type in all cases: in vivo
Conditions in all cases: foliar, compared to untreated control leaf disks, read-out: disease control
[1] = tested on: Blumeria graminis f. sp. tritici (Erysiphe graminis f. sp. tritici); test: Blumeria graminis f. sp. tritici / wheat / leaf disc preventative (powdery mildew on wheat)
Procedure, shortened: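 Wheat leaf segments (cv. Kanzler) on agar were sprayed with formulated compound in water, inoculated with powdery mildew 1 day later, and kept at 20° C, 60% rh (24 h dark, then 12 h light/12 h dark). Percent disease control versus untreated scored 6-8 days after application; tested at 200 ppm.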

[2] = tested on: Puccinia recondita f. sp. tritici; test: Puccinia recondita f. sp. tritici / wheat / leaf disc preventative (brown rust)
Description: Puccinia recondita f. sp. tritici/Wheat/Leaf Disc Preventative (Brown Rust) Wheat leaf segments cv. Kanzler were placed on agar in multiwell plates (24-well format) and sprayed with the formulated test compound diluted in water. The leaf disks were inoculated with a spore suspension of the fungus 1 day after application.

[3] = tested on: Puccinia recondita f. sp. tritici; test: Puccinia recondita f. sp. tritici / wheat / leaf disc curative (brown rust)
Procedure: Puccinia recondita f. sp. tritici/Wheat/Leaf Disc Curative (Brown Rust) Wheat leaf segments cv. Kanzler are placed on agar in multiwell plates (24-well format). The leaf segments are inoculated with a spore suspension of the fungus. Plates were stored in darkness at 19° C. and 75% rh. The formulated test compound diluted in water was applied 1 day after inoculation.

Pyrenophora teres = Pyrenophora teres / barley / leaf disc preventative (net blotch)
Description: Pyrenophora teres/Barley/Leaf Disc Preventative (Net Blotch) Barley leaf segments cv. Hasso were placed on agar in a multiwell plate (24-well format) and sprayed with the formulated test compound diluted in water. The leaf segments were inoculated with a spore suspension of the fungus 2 days after application.

Measured: pest or weed control at 200 ppm

CCN(C)/C=N/c1cc(Br)c(OCc2ccc(C)cc2C)nc1C [Q.324]
≥ 50%: all assays above

CCCc1cccc(C(C)Oc2nc(C)c(/N=C/N(C)CC)cc2Br)c1 (stereo not shown) [Q.344]
≥ 50%: all assays above

CCN(C)/C=N/c1cc(Br)c(OC(C)Cc2cccc(F)c2)nc1C (stereo not shown) [Q.218]
≥ 50%: all assays above

CCN(C)/C=N/c1cc(Br)c(OC2Cc3ccc(Br)cc3C2)nc1C (stereo not shown) [Q.196]
≥ 50%: all assays above

CCN(C)/C=N/c1cc(Br)c(OCCCc2ccc(OC)cc2)nc1C [Q.014]
≥ 50%: all assays above

CCN(C)/C=N/c1cc(Br)c(OC2CCC(C)C(C)CC2)nc1C (stereo not shown) [Q.308]
≥ 50%: all assays above

CCN(C)/C=N/c1cc(Br)c(OC(C)c2cccc(C(C)F)c2)nc1C (stereo not shown) [Q.292]
≥ 50%: all assays above

CCN(C)/C=N/c1cc(Br)c(OC2CCc3ccc(C(C)O)cc3C2)nc1C (stereo not shown) [Q.044]
≥ 50%: all assays above

C#Cc1cc(/N=C/N(C)CC)c(C)nc1OC(C)c1cc(F)cc(F)c1 (stereo not shown) [Q.229]
≥ 50%: all assays above

CCN(C)/C=N/c1cc(Br)c(OC2CCC(OC)CC2)nc1C (stereo not shown) [Q.166]
≥ 50%: all assays above

CCN(C)/C=N/c1cc(Br)c(OC(C)Cc2cc(C)cc(C)c2)nc1C (stereo not shown) [Q.219]
≥ 50%: all assays above

CCCN(C)/C=N/c1cc(Br)c(OC(C)c2cc(F)cc(F)c2)nc1C (stereo not shown) [Q.191]
≥ 50%: all assays above

CCN(C)/C=N/c1cc(Br)c(OCc2ccccc2S(C)(=O)=O)nc1C [Q.337]
≥ 50%: all assays above

CCN(C)/C=N/c1cc(Br)c(OCC2CCc3ccccc3C2)nc1C (stereo not shown) [Q.224]
≥ 50%: all assays above

CCN(C)/C=N/c1cc(Br)c(OC(C)Cc2cc(Cl)cc(Cl)c2)nc1C (stereo not shown) [Q.221]
≥ 50%: all assays above

CCN(C)/C=N/c1cc(Br)c(OC2CCC3CCCCC3C2)nc1C (stereo not shown) [Q.027]
≥ 50%: all assays above

C=Cc1ccccc1COc1nc(C)c(/N=C/N(C)CC)cc1Br [Q.275]
≥ 50%: all assays above

CCN(C)/C=N/c1cc(Br)c(OCCc2ccc(C)cc2)nc1C [Q.364]
≥ 50%: all assays above

CCN(C)/C=N/c1cc(Br)c(OC2CCN(S(C)(=O)=O)CC2)nc1C [Q.163]
≥ 50%: all assays above

CCN(C)/C=N/c1cc(Br)c(OC2CCN(C(C)=O)CC2)nc1C [Q.160]
≥ 50%: all assays above

Cc1nc(OC(C)c2cc(F)cc(F)c2)c(Br)cc1/N=C/N1CCCC1 (stereo not shown) [Q.193]
≥ 50%: all assays above

CCN(C)/C=N/c1cc(Br)c(OC2CCCC(Oc3ccccn3)C2)nc1C (stereo not shown) [Q.240]
≥ 50%: all assays above

CCN(C)/C=N/c1cc(Br)c(OC(C)c2ccc3cccnc3c2)nc1C (stereo not shown) [Q.242]
≥ 50%: all assays above

CCN(C)/C=N/c1ccc(OC(C)Cc2ccccc2C)nc1C (stereo not shown) [Q.354]
≥ 50%: all assays above

CCN(C)/C=N/c1cc(Br)c(OCCc2ccccc2)nc1C [Q.099]
≥ 50%: all assays above

CCN(C)/C=N/c1cc(C2CC2)c(OC2Cc3cc(OC)c(OC)cc3C2)nc1C [Q.069]
≥ 50%: all assays above

CCN(C)/C=N/c1cc(Br)c(OCCCCc2ccc(OC)cc2)nc1C [Q.046]
≥ 50%: all assays above

CCN(C)/C=N/c1cc(Br)c(OC2CCc3ccc(OC)cc3C2)nc1C (stereo not shown) [Q.018]
≥ 50%: all assays above

CCN(C)/C=N/c1cc(Br)c(OCc2cccc(C#N)c2)nc1C [Q.155]
≥ 50%: all assays above

CCN(C)/C=N/c1cc(Br)c(OC2CCSCC2)nc1C [Q.158]
≥ 50%: all assays above

CCN(C)/C=N/c1cc(Br)c(OCC[C@H]2CC[C@@H](O)CC2)nc1C [Q.005]
≥ 50%: all assays above

CCN(C)/C=N/c1cc(Br)c(OC2CCC(C)C2)nc1C (stereo not shown) [Q.167]
≥ 50%: all assays above

CCN(C)/C=N/c1cc(Br)c(OC(C)Cc2ccccc2)nc1C (stereo not shown) [Q.198]
≥ 50%: all assays above

CCN(C)/C=N/c1cc(OC)c(O[C@H]2CC[C@@H](C(C)C)CC2)nc1C [Q.248]
≥ 50%: all assays above

CCN(C)/C=N/c1cc(Br)c(OC(C)CCCc2ccccc2)nc1C (stereo not shown) [Q.201]
≥ 50%: all assays above

CCN(C)/C=N/c1cc(Br)c(OCc2cccc(C(F)F)c2)nc1C [Q.170]
≥ 50%: all assays above

CCN(C)/C=N/c1cc(Br)c(OCc2snc(-c3ccc(F)cc3)c2Cl)nc1C [Q.124]
≥ 50%: all assays above

CCN(C)/C=N/c1cc(C2CC2)c(O[C@H]2CC[C@@H](C(C)C)CC2)nc1C [Q.249]
≥ 50%: all assays above

CCN(C)/C=N/c1cc(Br)c(OC2CCNCC2)nc1C [Q.053]
≥ 50%: [1] | Pyrenophora teres

CCN(C)/C=N/c1cc(Br)c(OCc2snc(-c3ccc(F)cc3)c2Br)nc1C [Q.125]
≥ 50%: [1] | [2] | Pyrenophora teres

CCN(C)/C=N/c1cc(Br)c(OC2Cc3cc(Br)c(OC)cc3C2)nc1C (stereo not shown) [Q.202]
≥ 50%: [1] | [2] | Pyrenophora teres

CCN(C)/C=N/c1cc(Br)c(OC(C)c2ccsc2)nc1C (stereo not shown) [Q.245]
≥ 50%: [1] | [2] | Pyrenophora teres
